Nine compounds from PubChem BioAssay (NCI) can be followed below.

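Exposure lasted 48 hours, with cells grown in 96-well plates and compounds tested at five concentrations. GI50 marks 50% less growth. TGI is the concentration that stops growth completely.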 A value given as a limit tells only on which side of the number the result lay.

Some test systems named below: OVCAR-8 ovarian; HS 578T breast; HCC-2998 colon; UACC-257 melanoma; IGROV1 ovarian; SK-OV-3 ovarian; TK-10 renal; NCI-H23 lung; PC-3 prostate; MALME-3M melanoma.
What all share (test): NCI-60 cell line screen, 48 h

Take `COc1cc(C(=O)O[C@H](C(=O)NCCN(C)CCNC(=O)[C@@H](OC(=O)c2cc(OC)cc3c(C)cccc23)[C@]2(C)CO2)[C@]2(C)CO2)c2cccc(C)c2c1`: the GI50 in the assay on OVCAR-8 ovarian is under 0.01 µM; with HS 578T breast, 0.304 µM; in the assay on HCC-2998 colon it was under 0.0241 µM; in the assay with UACC-257 melanoma it was 0.416 µM; in the assay on IGROV1 ovarian it was under 0.0425 µM; in the assay on SK-OV-3 ovarian, 0.575 µM. Further, the values for the GI50 with TK-10 renal and with NCI-H23 lung were 0.348 µM and under 0.01 µM, respectively. In addition, the TGI with OVCAR-8 ovarian was under 0.0324 µM; in the assay with HS 578T breast it was over 100 µM; with HCC-2998 colon, 0.771 µM; in the assay with UACC-257 melanoma, 2.38 µM; in the assay on SK-OV-3 ovarian, 3.6 µM; in the assay with TK-10 renal, 1.57 µM. Also, the TGI in the assay on NCI-H23 lung turned out to be 0.0137 µM.

For the compound `O=C1C=Cc2c1ccc1ccccc21`, the GI50 with OVCAR-8 ovarian is 25.3 µM; in the assay with HS 578T breast it was 18.4 µM; with PC-3 prostate, 13 µM; in the assay on UACC-257 melanoma, 50.2 µM; with IGROV1 ovarian, 25.5 µM; with SK-OV-3 ovarian, 30.2 µM. Besides, the GI50 in the assay with TK-10 renal was 15.9 µM; in the assay with NCI-H23 lung, 27.4 µM. Further, the TGI was 73.6 µM with OVCAR-8 ovarian; 54.6 µM in the assay on HS 578T breast; 85.2 µM in the assay with PC-3 prostate; over 100 µM in the assay on UACC-257 melanoma; over 100 µM in the assay with IGROV1 ovarian; over 100 µM with SK-OV-3 ovarian. In addition, the values for the TGI with TK-10 renal and in the assay on NCI-H23 lung were 54.9 µM and 85.2 µM, respectively.

On to `ClCc1ccccc1Cn1cnc2c(Cl)ncnc21`, for which the GI50 with OVCAR-8 ovarian is 2.22 µM; in the assay on HS 578T breast, 2.28 µM; in the assay with HCC-2998 colon, 1.67 µM; in the assay on PC-3 prostate it was 3.03 µM; in the assay on UACC-257 melanoma it was 10.7 µM; in the assay with SK-OV-3 ovarian, 4.19 µM. In addition, the GI50 is 23.1 µM with TK-10 renal and 2.02 µM with NCI-H23 lung. For the same compound, the TGI in the assay on OVCAR-8 ovarian amounted to 5.21 µM; with HS 578T breast, 6.67 µM; in the assay with HCC-2998 colon it was 3.54 µM; in the assay with PC-3 prostate, 10.5 µM; in the assay on UACC-257 melanoma it was 26.6 µM; in the assay on SK-OV-3 ovarian it was 15.9 µM. The TGI is 46.7 µM in the assay on TK-10 renal and 4.34 µM in the assay on NCI-H23 lung.

As to `CCOC(=O)C(=CNC(=S)N=Nc1c(O)[nH]c2ccccc12)C(=O)OCC`, the TGI in the assay on OVCAR-8 ovarian, in the assay with HS 578T breast, in the assay on HCC-2998 colon, with PC-3 prostate, with UACC-257 melanoma and in the assay with SK-OV-3 ovarian was over 100 µM throughout. Besides, the TGI in the assay with TK-10 renal and with NCI-H23 lung was over 100 µM each time.

On to `Cc1ccc(NC(=O)/C(Cc2cc(=O)oc3cc(O)ccc23)=N\NC(C)(C)C)cc1C`, for which the TGI in the assay with OVCAR-8 ovarian, with HS 578T breast, in the assay with HCC-2998 colon, in the assay with PC-3 prostate, in the assay with UACC-257 melanoma and with SK-OV-3 ovarian was over 100 µM throughout. The TGI in the assay with NCI-H23 lung is over 100 µM.

As for `CC(=O)/C=C/C1=C(c2csc3ccccc23)c2ccccc2CC1`, the GI50 in the assay with OVCAR-8 ovarian is 30.4 µM; in the assay with MALME-3M melanoma, 21.7 µM; in the assay with HS 578T breast, 35 µM; in the assay on HCC-2998 colon, 24.3 µM; with PC-3 prostate, 29.9 µM; in the assay on UACC-257 melanoma, 20.8 µM. In addition, the GI50 in the assay on IGROV1 ovarian was 15.4 µM; in the assay with SK-OV-3 ovarian it was 22.4 µM; in the assay with TK-10 renal it was 23.5 µM. Besides, the TGI was over 100 µM with OVCAR-8 ovarian; 55.4 µM in the assay with MALME-3M melanoma; over 100 µM in the assay with HS 578T breast; 49.6 µM in the assay with HCC-2998 colon; over 100 µM in the assay with PC-3 prostate; 53.9 µM in the assay on UACC-257 melanoma. Further, the figures for the TGI in the assay on IGROV1 ovarian, with SK-OV-3 ovarian and in the assay with TK-10 renal were over 100 µM, over 100 µM and 92.9 µM, respectively.

`COC1=CC(c2ccc[nH]2)=N/C1=C\c1[nH]c(C)c(CC(=O)OCc2ccccc2)c1C`: the GI50 was 0.362 µM in the assay with OVCAR-8 ovarian; 0.578 µM with MALME-3M melanoma; 0.362 µM in the assay on HS 578T breast; 0.299 µM with PC-3 prostate; 0.605 µM in the assay with UACC-257 melanoma; 0.325 µM with IGROV1 ovarian. Further, the GI50 with SK-OV-3 ovarian is 0.457 µM; in the assay on TK-10 renal, 0.351 µM; in the assay with NCI-H23 lung, 0.399 µM. Further, the TGI in the assay on OVCAR-8 ovarian stood at 1.27 µM; in the assay on MALME-3M melanoma it was 2.1 µM; in the assay with HS 578T breast, 2.26 µM; with PC-3 prostate, 10.3 µM; with UACC-257 melanoma it was 2.24 µM; with IGROV1 ovarian, 1.34 µM. Moreover, the results for the TGI with SK-OV-3 ovarian, in the assay with TK-10 renal and in the assay with NCI-H23 lung were 2.77 µM, 2.11 µM and 2.98 µM, respectively.

Take `CCCCCCCC(=O)SCC/C=C/[C@@H]1CC(=O)NCc2nc(cs2)C2=N[C@@](C)(CS2)C(=O)N[C@@H](C(C)C)C(=O)N1`: the GI50 was 0.0234 µM in the assay on OVCAR-8 ovarian; 0.0183 µM in the assay with HS 578T breast; 0.0224 µM in the assay with HCC-2998 colon; under 0.0125 µM with PC-3 prostate; under 0.01 µM with UACC-257 melanoma; 0.0153 µM in the assay on IGROV1 ovarian. The GI50 is 0.0149 µM in the assay with SK-OV-3 ovarian, 0.0175 µM in the assay with TK-10 renal and 0.0399 µM with NCI-H23 lung. Besides, the TGI in the assay on OVCAR-8 ovarian is 16.7 µM; with HS 578T breast, 38 µM; in the assay on HCC-2998 colon it was 0.408 µM; in the assay with PC-3 prostate, over 100 µM; with UACC-257 melanoma, 0.0392 µM; in the assay with IGROV1 ovarian, 1.8 µM. Also, the TGI with SK-OV-3 ovarian came out at 0.14 µM; with TK-10 renal it was 0.316 µM; with NCI-H23 lung it was 20.8 µM.

In the case of `Cc1ccc(S(=O)(=O)C2=c3nc4ccccc4cc3=C3C(=O)c4ccccc4C(=O)C32)cc1` (centres undefined), the TGI in the assay on OVCAR-8 ovarian, in the assay on MALME-3M melanoma, in the assay with HCC-2998 colon, in the assay with UACC-257 melanoma, with IGROV1 ovarian and with SK-OV-3 ovarian was over 100 µM each time. In addition, the TGI with TK-10 renal and with NCI-H23 lung was over 100 µM each time.
